Test results published in article PMC4955148, “Identification and functional characterization of novel xylose transporters from the cell factories Aspergillus niger and Trichoderma reesei” (Biotechnology for Biofuels, 2016).

Tested on: T1, AnXltB
T1 construct: gene xltB; whole-cell uptake
Experiment: […]-sugar initial uptake ([…] s) in yeast, Michaelis-Menten fit
Format: cell-based, Aspergillus niger
Conditions: labelled compound; transport into intact cells; 100 mM PBS pH 6.5, 30 °C; read-out: Xylose initial uptake kinetics / K m

Km: 15 ± 4.5 mM
SMILES: OC1OC[C@@H](O)[C@H](O)[C@H]1O (stereo partly shown) [xylose]
